Results from US10189854B2, “Substituted pyrimidine compounds” (Grünenthal GmbH, priority 2014, dated 2019).

molecular target: T1, human PDE4B1 (Homo sapiens (Human), UniProt Q07343); assay: cAMP HTRF assay to determine the activity of hPDE4B1; type: biochemical; settings: IC50 inhibition of PDE4B; human recombinant PDE4B1, cAMP HTRF assay
In short: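 Recombinant human PDE4B1 expressed in Sf9 cells (4.8 U) was incubated with 40 nM cAMP for 30 min at room temperature in Tris buffer, pH 7.8, with MgCl2, DTT and Tween 20. HTRF detection of remaining cAMP followed, with 1 mM IBMX stop, read 60 min later as the 665/620 nm ratio. Results are % inhibition versus control.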

T1 sequence (Q07343 whole entry): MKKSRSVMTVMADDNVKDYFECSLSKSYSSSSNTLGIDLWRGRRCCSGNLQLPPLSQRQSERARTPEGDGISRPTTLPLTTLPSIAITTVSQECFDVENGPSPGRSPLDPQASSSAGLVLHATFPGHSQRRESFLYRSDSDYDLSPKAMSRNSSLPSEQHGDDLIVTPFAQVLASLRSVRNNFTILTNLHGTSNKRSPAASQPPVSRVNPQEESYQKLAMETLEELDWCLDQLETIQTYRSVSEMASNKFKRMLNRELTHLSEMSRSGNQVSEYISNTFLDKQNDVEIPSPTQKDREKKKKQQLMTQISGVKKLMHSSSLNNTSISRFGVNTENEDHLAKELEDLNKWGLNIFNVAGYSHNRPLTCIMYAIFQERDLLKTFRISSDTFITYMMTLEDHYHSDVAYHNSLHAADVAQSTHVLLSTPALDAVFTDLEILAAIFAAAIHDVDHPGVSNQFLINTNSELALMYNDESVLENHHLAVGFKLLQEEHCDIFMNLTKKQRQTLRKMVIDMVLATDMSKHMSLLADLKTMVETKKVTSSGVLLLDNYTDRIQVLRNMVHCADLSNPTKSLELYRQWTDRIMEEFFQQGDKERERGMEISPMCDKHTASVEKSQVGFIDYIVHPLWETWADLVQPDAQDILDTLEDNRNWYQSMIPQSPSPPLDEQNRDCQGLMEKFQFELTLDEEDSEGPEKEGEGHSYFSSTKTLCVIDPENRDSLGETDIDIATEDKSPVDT

Row | IC50 [µM] | Compound
1 | 1 to 10 | O=C(c1ccc2c(c1)N(c1ncc(-c3ccccc3F)cn1)CC21CC1)N1CCN(C2CC2)CC1 [Compound 66, (4-Cyclopropyl-piperazin-1-yl)-[1-[5-(2-fluorophenyl)-pyrimidin-2-yl]-spiro[1,2-dihydro-indole-3,1′-cyclopropane]-6-yl]-methanone]
2 | < 0.1 | O=C(c1ccc2c(c1)N(c1ncc(-c3ccccn3)cn1)CC21CC1)N1CCCC1 [Compound 175, [1-(5-Pyridin-2-yl-pyrimidin-2-yl)-spiro[1,2-dihydro-indole-3,1′-cyclopropane]-6-yl]-pyrrolidin-1-yl-methanone]
3 | < 0.1 | 1-[5-(3-Cyano-phenyl)-pyrimidin-2-yl]-N-(2-hydroxy-ethyl)-N-methyl-spiro[1,2-dihydro-indole-3,1′-cyclopropane]-6-carboxylic acid amide [Compound 194]
4 | < 0.1 | O=C(c1ccc2c(c1)N(c1ncc(-c3cc(F)cc(F)c3)cn1)CC21CC1)N1CCOCC1 [Compound 50, [1-[5-(3,5-Difluoro-phenyl)-pyrimidin-2-yl]-spiro[1,2-dihydro-indole-3,1′-cyclopropane]-6-yl]-morpholin-4-ylmethanone]
5 | 0.1 to 1 | NC(=O)c1cccc(F)c1-c1cnc(N2CC3(CC3)c3ccc(C(=O)N4CCOCC4)cc32)nc1 [Compound 32, 3-Fluoro-2-[2-[6-(morpholine-4-carbonyl)-spiro[1,2-dihydro-indole-3,1′-cyclopropane]-1-yl]-pyrimidin-5-yl]-benzamide]
6 | < 0.1 | CN(C)C(=O)c1ccc2c(c1)N(c1ncc(-c3ccccc3F)cn1)CC21CC1 [Compound 2, 1-[5-(2-Fluorophenyl)-pyrimidin-2-yl]-N,N-dimethyl-spiro[1,2-dihydro-indole-3,1′-cyclopropane]-6-carboxylic acid amide]
7 | < 0.1 | O=C1CN(C(=O)c2ccc3c(c2)N(c2ncc(-c4ccccc4F)cn2)CC32CC2)CCN1 [Compound 4, 4-[1-[5-(2-Fluorophenyl)-pyrimidin-2-yl]-spiro[1,2-dihydro-indole-3,1′-cyclopropane]-6-carbonyl]-piperazin-2-one]
8 | < 0.1 | O=C(c1ccc2c(c1)N(c1ncc(-c3ccccc3)cn1)CC21CC1)N1CCNCC1 [Compound 49, [1-(5-Phenyl-pyrimidin-2-yl)-spiro[1,2-dihydro-indole-3,1′-cyclopropane]-6-yl]-piperazin-1-yl-methanone]

molecular target: T1, human PDE4B1; assay: TR-FRET assay using the LANCE Ultra cAMP kit to determine the activity of hPDE4B1; type: biochemical; settings: IC50 inhibition of PDE4B, mean
Text: TR-FRET Assay Using the LANCE® Ultra cAMP Kit to Determine the Activity of hPDE4B1
The effects of the compounds on the activity of the human PDE4B1 was quantified by measuring the production of 5′AMP from cAMP using a human recombinant enzyme expressed in Sf9 cells and the LANCE® Ultra cAMP kit, a TR-FRET detection method from PerkinElmer. The human PDE4B1 enzyme was purchased from SignalChem Lifesciences (Catalog# P92-31BG, Lot# H296-2).
The test compound, reference compound or water (control) was mixed with the enzyme (0.96 U) in a reaction buffer containing 50 mM Tris-HCl, 50 mM MgCl2 and 5 mM DTT (pH 8.5). Thereafter, the reaction was initiated by addition of 500 nM cAMP (substrate) and the mixture was incubated for 30 minutes at room temperature. For control basal measurements, the enzyme was omitted from the reaction mixture. After 30 minutes, the reaction was stopped and diluted by a factor of 100 with the reaction buffer supplemented with 500 μM IBMX. The fluorescence donor (europium chelate-labeled cAMP) and the fluorescence acceptor (anti-cAMP antibody labeled with the ULight™ dye) were then added together with 500 μM IBMX to a 10 μl aliquot. After 60 minutes, the fluorescence transfer corresponding to the amount of residual cAMP was measured at λex=337 nm, λem=620 nm and λem=665 nm using a microplate reader (PHERAstar, BMG). The enzyme activity was determined by dividing the signal measured at 665 nm by that measured at 620 nm (ratio) multiplied by 10000. The results were expressed as percent inhibition of the control enzyme activity. IC50 values (IC50=concentration causing a half-maximal inhibition of control specific activity) were derived from dose response measurements with ten different concentrations (n=3; N=1-3).
Several compounds according to the invention are tested with above mentioned assay.

Row | IC50 [µM] | Compound
9 | < 0.1 | Cc1ccnc(-c2cnc(N3CC4(CC4)c4ccc(C(=O)N5CC[C@@H](N)C5)cc43)nc2)c1 [Compound 334, [(3R)-3-Amino-pyrrolidin-1-yl]-[1-[5-(4-methyl-pyridin-2-yl)-pyrimidin-2-yl]-spiro[1,2-dihydro-indole-3,1′-cyclopropane]-6-yl]-methanone]
10 | < 0.1 | CN(CCO)C(=O)c1ccc2c(c1)N(c1ncc(-c3cc(S(C)(=O)=O)ccc3F)cn1)CC21CC1 [Compound 296, 1-[5-(2-Fluoro-5-methylsulfonyl-phenyl)-pyrimidin-2-yl]-N-(2-hydroxy-ethyl)-N-methyl-spiro[1,2-dihydro-indole-3,1′-cyclopropane]-6-carboxylic acid amide]
11 | < 0.1 | CC(C)(O)c1ccnc(-c2cnc(N3CC4(CC4)c4ccc(C(=O)N5CCOCC5)cc43)nc2)c1 [Compound 294, [1-[5-[4-(1-Hydroxy-1-methyl-ethyl)-pyridin-2-yl]-pyrimidin-2-yl]-spiro[1,2-dihydro-indole-3,1′-cyclopropane]-6-yl]-morpholin-4-yl-methanone]
12 | < 0.1 | O=C(c1ccc2c(c1)N(c1ncc(-c3ccccc3F)cn1)CC21CC1)N1CCO[C@@H](CO)C1 [Compound 362, [1-[5-(2-Fluorophenyl)-pyrimidin-2-yl]-spiro[1,2-dihydro-indole-3,1′-cyclopropane]-6-yl]-[(2R)-2-(hydroxymethyl)-morpholin-4-yl]-methanone]
13 | < 0.1 | COc1ccnc(-c2cnc(N3CC4(CC4)c4ccc(C(=O)N5CC[C@@H](N)C5)cc43)nc2)c1 [Compound 330, [(3R)-3-Amino-pyrrolidin-1-yl]-[1-[5-(4-methoxy-pyridin-2-yl)-pyrimidin-2-yl]-spiro[1,2-dihydro-indole-3,1′-cyclopropane]-6-yl]-methanone]
14 | < 0.1 | C[C@@H](O)CN(C)C(=O)c1ccc2c(c1)N(c1ncc(-c3ccccc3F)cn1)CC21CC1 [Compound 283, 1-[5-(2-Fluorophenyl)-pyrimidin-2-yl)-N-[(2R)-2-hydroxy-propyl]-N-methyl-spiro[1,2-dihydro-indole-3,1′-cyclopropane]-6-carboxylic acid amide]
15 | < 0.1 | CC(C)c1ccnc(-c2cnc(N3CC4(CC4)c4ccc(C(=O)N(C)CCO)cc43)nc2)c1 [Compound 242, N-(2-Hydroxy-ethyl)-1-[5-(4-isopropyl-pyridin-2-yl)-pyrimidin-2-yl]-N-methyl-spiro[1,2-dihydro-indole-3,1′-cyclopropane]-6-carboxylic acid amide]
16 | < 0.1 | Cc1cc(C)nc(-c2cnc(N3CC4(CC4)c4ccc(C(=O)N(C)CCO)cc43)nc2)c1 [Compound 260, 1-[5-(4,6-Dimethyl-pyridin-2-yl)-pyrimidin-2-yl]-N-(2-hydroxy-ethyl)-N-methyl-spiro[1,2-dihydro-indole-3,1′-cyclopropane]-6-carboxylic acid amide]
17 | < 0.1 | N[C@@H]1CCN(C(=O)c2ccc3c(c2)N(c2ncc(-c4cc(C5CC5)ccn4)cn2)CC32CC2)C1 [Compound 335, (R)-(3-aminopyrrolidin-1-yl)(1′-(5-(4-cyclopropylpyridin-2-yl)pyrimidin-2-yl)spiro[cyclopropane-1,3′-indolin]-6′-yl)methanone]
18 | < 0.1 | CN(C)c1ccnc(-c2cnc(N3CC4(CC4)c4ccc(C(=O)N5CCNC(=O)C5)cc43)nc2)c1 [Compound 255]
19 | < 0.1 | CN(CCO)C(=O)c1ccc2c(c1)N(c1ncc(-c3cc(C(C)(C)O)ccn3)cn1)CC21CC1 [Compound 314, N-(2-Hydroxy-ethyl)-1-[5-[4-(1-hydroxy-1-methyl-ethyl)-pyridin-2-yl]-pyrimidin-2-yl]-N-methyl-spiro[1,2-dihydro-indole-3,1′-cyclopropane]-6-carboxylic acid amide]
20 | < 0.1 | CS(=O)(=O)c1ccnc(-c2cnc(N3CC4(CC4)c4ccc(C(=O)N5CCOCC5)cc43)nc2)c1 [Compound 345, [1-[5-(4-Methylsulfonyl-pyridin-2-yl)-pyrimidin-2-yl]-spiro[1,2-dihydro-indole-3,1′-cyclopropane]-6-yl]-morpholin-4-yl-methanone]
21 | < 0.1 | CC[S+]([O-])c1cccc(-c2cnc(N3CC4(CC4)c4ccc(C(=O)N(C)CCO)cc43)nc2)c1 (centres unmarked) [Compound 341, 1-[5-[3-(Ethylsulfinyl)-phenyl]-pyrimidin-2-yl]-N-(2-hydroxy-ethyl)-N-methyl-spiro[1,2-dihydro-indole-3,1′-cyclopropane]-6-carboxylic acid amide]
22 | < 0.1 | O=C(c1ccc2c(c1)N(c1ncc(-c3ccccc3F)cn1)CC21CC1)N1CC[C@H](CO)C1 [Compound 310, [1-[5-(2-Fluorophenyl)-pyrimidin-2-yl]-spiro[1,2-dihydro-indole-3,1′-cyclopropane]-6-yl]-[(3S)-3-(hydroxymethyl)-pyrrolidin-1-yl]-methanone]

The remaining lines, values behind:

Row | Compound | IC50 [µM]
23 | CN(CCO)C(=O)c1ccc2c(c1)N(c1ncc(-c3ccc(F)cn3)cn1)CC21CC1 [Compound 232, 1-[5-(5-Fluoro-pyridin-2-yl)-pyrimidin-2-yl]-N-(2-hydroxy-ethyl)-N-methyl-spiro[1,2-dihydro-indole-3,1′-cyclopropane]-6-carboxylic acid amide] | < 0.1
24 | CN(CCO)C(=O)c1ccc2c(c1)N(c1ncc(-c3cc(F)ccn3)cn1)CC21CC1 [Compound 233, 1-[5-(4-Fluoro-pyridin-2-yl)-pyrimidin-2-yl]-N-(2-hydroxy-ethyl)-N-methyl-spiro[1,2-dihydro-indole-3,1′-cyclopropane]-6-carboxylic acid amide] | < 0.1
25 | O=C(c1ccc2c(c1)N(c1ncc(-c3ccccc3F)cn1)CC21CC1)N1CCC2(CCCN2)C1 (centres unmarked) [Compound 226, (1,-Diazaspiro[4.4]nonan-7-yl)-[1-[5-(2-fluorophenyl)-pyrimidin-2-yl]-spiro[1,2-dihydro-indole-3,1′-cyclopropane]-6-yl]-methanone] | 0.1 to 1
26 | COCCN1CCN(C(=O)c2ccc3c(c2)N(c2ncc(-c4ccccc4F)cn2)CC32CC2)CC1 [Compound 235, [1-[5-(2-Fluorophenyl)-pyrimidin-2-yl]-spiro[1,2-dihydro-indole-3,1′-cylcopropane]-6-yl]-[4-(2-methoxy-ethyl)-piperazin-1-yl]-methanone] | 0.1 to 1
